Assay results published in the supplement of paper PMC11061612.

What was measured:
Test in all cases: combination Emax (second highest fraction inhibited in the dose matrix, 72 h); higher = more inhibition; extreme values may be limits of the assay
ES1 (Ewing's Sarcoma) = test system: ES1 (Ewing's Sarcoma)
Outline: (§1)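 After 24 hours at 37°C and 5% CO2 in 1536-well plates, cells in DMEM/F12 or RPMI plus 10% FBS received two-drug dose matrices for 72 hours. Viability came from CellTiter-Glo 2.0 luminescence and was scaled as inhibition, anchored at 0 by vehicle wells and at 1 by blank wells. Combination Emax is taken as the second-highest inhibition in the matrix, and Bliss excess as the observed combination effect less EA + EB − EA·EB, with EA and EB the single-agent effects.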

[1] = test system: MFM-223 (Breast Carcinoma)
Outline: as §1

[2] = test system: K-562 (Chronic Myelogenous Leukemia)
Outline: as §1

[3] = test system: PANC-08-13 (Pancreatic Carcinoma)
Outline: as §1

NCI-H2818 (Mesothelioma) = test system: NCI-H2818 (Mesothelioma)
Outline: as §1

[4] = test system: SR (Other Blood Carcinomas)
Outline: as §1

[5] = test system: MKN28 (Gastric Carcinoma)
Outline: as §1

TC-71 (Ewing's Sarcoma) = test system: TC-71 (Ewing's Sarcoma)
Outline: as §1

[6] = test system: GR-ST (B-Lymphoblastic Leukemia)
Outline: as §1

[7] = test system: KCL-22 (Chronic Myelogenous Leukemia)
Outline: as §1

[8] = test system: NCI-H1792 (Lung Adenocarcinoma)
Outline: as §1

[9] = test system: MS751 (Cervical Carcinoma)
Outline: as §1

[10] = test system: L-540 (Hodgkin's Lymphoma)
Outline: as §1

[11] = test system: KARPAS-45 (T-Lymphoblastic Leukemia)
Outline: as §1

CHP-212 (Neuroblastoma) = test system: CHP-212 (Neuroblastoma)
Outline: as §1

[12] = test system: HDQ-P1 (Breast Carcinoma)
Outline: as §1

[13] = test system: SU-DHL-8 (B-Cell Non-Hodgkin's Lymphoma)
Outline: as §1

WM-115 (Melanoma) = test system: WM-115 (Melanoma)
Outline: as §1

[14] = test system: DND-41 (T-Lymphoblastic Leukemia)
Outline: as §1

[15] = test system: NCI-H847 (Small Cell Lung Carcinoma)
Outline: as §1

CN(CCO)CC[C@H](CSc1ccccc1)Nc1ccc(S(=O)(=O)NC(=O)c2ccc(N3CCC([C@@H](O)c4ccccc4-c4ccc(Cl)cc4)CC3)cc2)cc1S(=O)(=O)C(F)(F)F [AZD4320] + C[C@@H]1COCCN1C2=NC(=NC(=C2)C3(CC3)[S@](=N)(=O)C)C4=C5C=CNC5=NC=C4 [AZD6738] (first compound max 1 µM, 7x7, partner max 10 µM)
combination Emax (ES1 (Ewing's Sarcoma)): 0.942 | combination Emax [1]: 0.842 | combination Emax [2]: 0.88 | combination Emax [3]: 0.636 | combination Emax (NCI-H2818 (Mesothelioma)): 0.567 | combination Emax [4]: 0.982 | combination Emax [5]: 0.442 | combination Emax (TC-71 (Ewing's Sarcoma)): 1 | combination Emax [6]: 0.745 | combination Emax [7]: 0.976 | combination Emax [8]: 0.777 | combination Emax [9]: 0.378 | combination Emax [10]: 0.969 | combination Emax [11]: 1 | combination Emax (CHP-212 (Neuroblastoma)): 0.82 | combination Emax [12]: 0.745 | combination Emax [13]: 1 | combination Emax (WM-115 (Melanoma)): 0.769 | combination Emax [14]: 1 | combination Emax [15]: 1

CN(CCO)CC[C@H](CSc1ccccc1)Nc1ccc(S(=O)(=O)NC(=O)c2ccc(N3CCC([C@@H](O)c4ccccc4-c4ccc(Cl)cc4)CC3)cc2)cc1S(=O)(=O)C(F)(F)F [AZD4320] + Cc1cc2ncnn2cc1Nc1ncc2c(n1)n(C1CCOCC1)c(=O)n2C [AZD7648] (first compound max 1 µM, 7x7, partner max 10 µM)
combination Emax (ES1 (Ewing's Sarcoma)): 0.355 | combination Emax [1]: 0.223 | combination Emax [2]: 0.17 | combination Emax [3]: 0.391 | combination Emax (NCI-H2818 (Mesothelioma)): 0.364 | combination Emax [4]: 0.393 | combination Emax [5]: 0.153 | combination Emax (TC-71 (Ewing's Sarcoma)): 0.593 | combination Emax [6]: 0.371 | combination Emax [7]: 0.462 | combination Emax [8]: 0.287 | combination Emax [9]: 0.146 | combination Emax [10]: 0.502 | combination Emax [11]: 0.991 | combination Emax (CHP-212 (Neuroblastoma)): 0.379 | combination Emax [12]: 0.522 | combination Emax [13]: 0.942 | combination Emax (WM-115 (Melanoma)): 0.489 | combination Emax [14]: 1 | combination Emax [15]: 1

Cc1c2c(nn1C)CSCc1cc(n(C)n1)CSc1cc(c3ccccc3c1)OCCCc1c(C(=O)O)n(C)c3c-2c(Cl)ccc13 [AZD5991] + CC1(C)CCC(CN2CCN(c3ccc(C(=O)NS(=O)(=O)c4ccc(NCC5CCOCC5)c([N+](=O)[O-])c4)c(Oc4cnc5[nH]ccc5c4)c3)CC2)=C(c2ccc(Cl)cc2)C1 [Venetoclax] (first compound max 1 µM, 7x7, partner max 1 µM)
combination Emax (ES1 (Ewing's Sarcoma)): 0.93 | combination Emax [1]: 0.276 | combination Emax [2]: 0.226 | combination Emax [3]: 0.116 | combination Emax (NCI-H2818 (Mesothelioma)): 0.387 | combination Emax [4]: 0.964 | combination Emax [5]: 0.126 | combination Emax (TC-71 (Ewing's Sarcoma)): 0.831 | combination Emax [6]: 0.124 | combination Emax [7]: 0.928 | combination Emax [8]: 0.379 | combination Emax [9]: 0.812 | combination Emax [10]: 1 | combination Emax [11]: 1 | combination Emax (CHP-212 (Neuroblastoma)): 0.835 | combination Emax [12]: 0.216 | combination Emax [13]: 0.861 | combination Emax (WM-115 (Melanoma)): 0.59 | combination Emax [14]: 0.418 | combination Emax [15]: 0.98

Cc1c2c(nn1C)CSCc1cc(n(C)n1)CSc1cc(c3ccccc3c1)OCCCc1c(C(=O)O)n(C)c3c-2c(Cl)ccc13 [AZD5991] + CCN(CCO)CCCOc1ccc2c(Nc3cc(CC(=O)Nc4cccc(F)c4)[nH]n3)ncnc2c1 [AZD2811] (first compound max 1 µM, 7x7, partner max 1 µM)
combination Emax (ES1 (Ewing's Sarcoma)): 0.983 | combination Emax [1]: 0.574 | combination Emax [2]: 0.43 | combination Emax [3]: 0.281 | combination Emax (NCI-H2818 (Mesothelioma)): 0.287 | combination Emax [4]: 0.988 | combination Emax [5]: 0.329 | combination Emax (TC-71 (Ewing's Sarcoma)): 0.848 | combination Emax [6]: 0.336 | combination Emax [7]: 0.921 | combination Emax [8]: 0.314 | combination Emax [9]: 0.855 | combination Emax [10]: 1 | combination Emax [11]: 1 | combination Emax (CHP-212 (Neuroblastoma)): 0.86 | combination Emax [12]: 0.159 | combination Emax [13]: 0.931 | combination Emax (WM-115 (Melanoma)): 0.232 | combination Emax [14]: 0.21 | combination Emax [15]: 0.973

Cc1c2c(nn1C)CSCc1cc(n(C)n1)CSc1cc(c3ccccc3c1)OCCCc1c(C(=O)O)n(C)c3c-2c(Cl)ccc13 [AZD5991] + CN(C)CCCOc1ccc(-c2ccc3ncc4c(c3c2)n(C2CCOCC2)c(=O)n4C)cn1 [AZD0156] (first compound max 1 µM, 7x7, partner max 1 µM)
combination Emax (ES1 (Ewing's Sarcoma)): 0.753 | combination Emax [1]: 0.238 | combination Emax [2]: 0.172 | combination Emax [3]: 0.211 | combination Emax (NCI-H2818 (Mesothelioma)): 0.355 | combination Emax [4]: 0.96 | combination Emax [5]: 0.275 | combination Emax (TC-71 (Ewing's Sarcoma)): 0.463 | combination Emax [6]: 0.502 | combination Emax [7]: 0.926 | combination Emax [8]: 0.345 | combination Emax [9]: 0.859 | combination Emax [10]: 1 | combination Emax [11]: 0.913 | combination Emax (CHP-212 (Neuroblastoma)): 0.837 | combination Emax [12]: 0.195 | combination Emax [13]: 0.692 | combination Emax (WM-115 (Melanoma)): 0.244 | combination Emax [14]: 0.158 | combination Emax [15]: 0.57

Cc1c2c(nn1C)CSCc1cc(n(C)n1)CSc1cc(c3ccccc3c1)OCCCc1c(C(=O)O)n(C)c3c-2c(Cl)ccc13 [AZD5991] + C[C@@H]1COCCN1C2=NC(=NC(=C2)C3(CC3)[S@](=N)(=O)C)C4=C5C=CNC5=NC=C4 [AZD6738] (first compound max 1 µM, 7x7, partner max 10 µM)
combination Emax (ES1 (Ewing's Sarcoma)): 1 | combination Emax [1]: 0.824 | combination Emax [2]: 0.864 | combination Emax [3]: 0.419 | combination Emax (NCI-H2818 (Mesothelioma)): 0.496 | combination Emax [4]: 1 | combination Emax [5]: 0.405 | combination Emax (TC-71 (Ewing's Sarcoma)): 0.987 | combination Emax [6]: 0.716 | combination Emax [7]: 0.997 | combination Emax [8]: 0.731 | combination Emax [9]: 0.901 | combination Emax [10]: 1 | combination Emax [11]: 1 | combination Emax (CHP-212 (Neuroblastoma)): 0.939 | combination Emax [12]: 0.387 | combination Emax [13]: 1 | combination Emax (WM-115 (Melanoma)): 0.471 | combination Emax [14]: 0.9 | combination Emax [15]: 0.994
